Entries after “also recorded” stand apart in the source; their conditions may differ.
Legend:
[1] = test system: human peripheral blood mononuclear cells (hPBMCs); assay: Immunogenic reaction on human PBMCs (LEGENDplex Human Inflammation Panel); assay type: cell-based; conditions: for immune stimulation (secretion of inflammatory cytokines and chemokines): 1, 5, 10 uM aptamer, 24 and 72 h, versus mock or control aptamer
Method: 147. Human PBMCs were isolated from buffy coats provided by Carter BloodCare(Bedford, TX, USA). Isolation was carried out through density-gradient centrifugation utilizing FicollPaque Plus from GE Healthcare. The isolated human PBMCs suspended in cRPMI media were subjected to stimulation with or without the AYA1809002 and AYA1809004 aptamers and a control aptamer. Various concentrations (1, 5, and 10 uM) of these aptamers were used, along with positive control stimuli such as LPS (200 ng/mL), ODN 1826 (20 uM, Invitrogen), or a combination of LPS (100 ng/mL) and ODN 1826 (10 uM). Following incubation periods of 24 and 72 h, the cell supernatant was collected via centrifugation at 200 g for 3 min. Cytokine levels were evaluated using the LEGENDplex Human Inflammation Panel 1 from BioLegend (cat #740808, San Diego, CA, USA) following the manufacturer's protocol, soluble analytes were acquired using a Navios EX flow cytometer (Beckman Coulter Inc, Pasadena, CA USA), and subsequent analysis was performed using BioLegend's LEGENDPLEX™ system(San Diego, CA, USA).

human citrated plasma = assay: Prothrombin time (PT) assay in human citrated plasma; assay type: biochemical; conditions: 2 uM, 2 h, versus untreated control
Method: Plasma was prepared by centrifugation for 10 min at 2000×g. In vitro activity assays were performed on ACLTOP analyzer manufactured by Instrumentation Laboratory, which is a type of coagulation analyzer commonly used in clinical laboratories to measure clotting times and assess coagulation parameters. The ACLTOP analyzer is designed to perform a wide range of coagulation tests, including Factor II activity, prothrombin time (PT), activated partial thromboplastin time (APTT), fibrinogen, and other related assays. ACLTOP analyzer uses HemosIL reagents developed by Instrumentation Laboratory company (Bedford, MA, USA) to perform coagulation tests.
PT time was measured using RecombiPlasTin 2G for quantitative determination in human citrated plasma of PT and Fibrinogen on an ACLTOP coagulation analyzer manufactured by Instrumentation Laboratory (Bedford, MA, USA). To assess the activity of the aptamers in a dose-dependent manner in whole blood, human blood samples were collected in citrate-treated tubes. The blood samples were then incubated at room temperature for 2 h in the absence or presence of varying concentrations of the thrombin aptamers. To measure the Prothrombin Time (PT) on the ACLTOP coagulation analyzer, plasma was obtained by centrifuging the samples at 1500×g for 10 min at 4° C. For the dose dependence study, concentrations of 1 uM, 2 uM, 3 uM, and 4 uM of AYA1809002 and AYA1809004 were utilized.
Modified aptamers chemically crosslinked with TAG, PEG, and cholesterol entities at the 3′ end, were purchased from IDT (Integrated DNA Technologies, Coralville, IA, USA). The impact of modified AYA1809002 and AYA1809004 aptamers on Factor II activity, PT, and APTT was evaluated using the same protocol as was used for the unmodified aptamers. Additionally, the potential for reversal was investigated using the respective reverse complement for each aptamer.

[2] = test system: Salmonella typhimurium strains TA98, TA100, TA1535, TA1537 and Escherichia coli strains wp2 [pKM101] and wp2 uvrA; assay: Ames test (Xenometrix Ames MPF PENTA I); assay type: cell-based; conditions: 0.5 uM to 10 uM; with and without S9
Method: 148. The mutagenic potential of AYA1809002 and AYA1809004 was evaluated using the Ames test with the Xenometrix Ames MPF PENTA I kit, including S9 and Positive Controls (Aniara Diagnostica, code: ACO1-512-S2-P; manufacturer's part number: C01-512-S2-P, West Chester Township, OH).
165. To assess the mutagenicity of the aptamers, we performed Ames test, a widely used assay for evaluating the mutagenicity of chemical compounds. The Ames test is a bac-terial reverse mutation assay that detects the ability of a substance to induce mutations in the DNA of certain strains of bacteria. It utilizes various bacterial strains, including Salmonella typhimurium strains TA98, TA100, TA1535, and TA1537, as well as the Escherichia coli strains wp2 [pKM101]and wp2 uvrA. To evaluate the mutagenic potential of an aptamer, amino acid-requiring bacterial organisms are exposed to different concentrations of the aptamer and mutagenic events are assessed by selecting for reversion events. In this context, the aptamers AYA1809002 and AYA1809004 were supplemented at increasing concentrations ranging from 0.5 uM to 10 uM.

clot-bound thrombin = biological target: T1, clot-bound thrombin (Homo sapiens, UniProt P00734); assay: Clot-bound thrombin inhibition; assay type: biochemical; conditions: for inhibition of clot-bound thrombin: washed clots from platelet-rich plasma, fluorogenic substrate, 90 min, 37° C.
T1 construct: from tissue; host or cells: washed fibrin clots formed from platelet-rich plasma of healthy donors
Method: 145. For the inhibition study of clot-bound thrombin, blood samples were collected from healthy donors using citrate-treated tubes and centrifuged at 200×g for 15 min at room temperature. The resulting supernatant consisting of platelet-rich plasma (PRP) was collected and aliquots of 500 μL were transferred to microfuge tubes containing 50 μL of 300 mM CaCl2). The mixture was then incubated for 2 h at 37° C. in an incubator without agitation. The formed clots were washed ten times over the course of 16 h at room temperature; each time, 1 mL aliquots of TBS buffer (50 mM Tris-HCl, 100 mM NaCl, pH 7.4) were added to the clots with mixing. Subsequently, the washed clots were transferred to the assay plate (ThermoFisher Scientific, cat #3915, Waltham, MA, USA). […] After a 20 min incubation period with agitation, a thrombin substrate (, Thrombin substrate III, Fluorogenic, Sigma-Aldrich, cat #605211, St. Louis, MO, USA) was added to each sample at a final concentration of 200 μM. Fluorescence measurements were performed using a SYNERGY/HTX multi-mode reader (BioTek, Agilent Technologies, Santa Clara, CA 95051, USA) with the excitation/emission wavelengths set at 360/460 nm. The measurements were recorded for a total duration of 90 min at a temperature of 37° C.

Substance: AYA1809002: ssDNA thrombin aptamer GCGGTGTTGCTGGGGTTGGGAGGTTGGAGGAAGCAATCGC
- immune stimulation (secretion of inflammatory cytokines and chemokines) [1]: do not exhibit immune-stimulating properties; also recorded: did not exhibit immune-stimulating properties
- Safety: immunogenicity and side effects ([1]; Table 3): Low immunogenicity
- increase in PT time (human citrated plasma): three-fold increases
- mutagenicity (revertants) [2]: do not exhibit mutagenic properties; also recorded: did not exhibit mutagenic properties
- level of clot-bound thrombin inhibition, comparison (clot-bound thrombin; comparison between aptamers and with dabigatran 2 μM): higher level of inhibition compared to AYA1809004
- inhibition of clot-bound thrombin (clot-bound thrombin): inhibit clot-bound thrombin in a concentration-dependent manner

Substance: AYA1809004: ssDNA thrombin aptamer TCGTCAAGGTACGGTTGGGGGGGTGGGTGTTGACGTTGAA (DNA, backbone not given here)
- immune stimulation (secretion of inflammatory cytokines and chemokines) [1]: do not exhibit immune-stimulating properties
- increase in PT time (human citrated plasma): three-fold increases
- mutagenicity (revertants) [2]: do not exhibit mutagenic properties
- inhibition of clot-bound thrombin (clot-bound thrombin): inhibit clot-bound thrombin in a concentration-dependent manner

Source: patent publication US20250304973A1, “HIGH-AFFINITY THROMBIN APTAMERS AND METHODS OF USE” (Ayass Bioscience LLC, priority 2024, published 2025)
